# Test results: patent US20230017045A1, “PYRIDINE AND PYRIMIDINE CARBOXYLATE HERBICIDES AND METHODS OF USE THEREOF” (Dow AgroSciences LLC, priority 2017, published 2023)
# Where two headings read alike, the source gives them in different places.
# System: test plant species
# Assay: Post-emergent herbicidal activity test (greenhouse, foliar spray, visual growth reduction)
# Assay type: in vivo
# Settings: post-emergence, 336 h, 140 g ai/ha
# Summary of the method: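 Scoring used a 0 to 100 percent visual scale of growth reduction against solvent-treated controls, read 14 d after spraying. Applications went onto plants at first or second true leaf stage, 187 L/ha, with crop oil concentrate and X-77 surfactant in the carrier. Post-treatment watering was by subirrigation to avoid wash-off.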
# [1] = ALOMY: blackgrass (Alopecurus myosuroides), 14 days after application, read-out: Visual Growth Reduction (%) 14 Days After Application, ALOMY
# [2] = AMARE: redroot pigweed (Amaranthus retroflexus), 14 days after application, read-out: Visual Growth Reduction (%) 14 Days After Application, AMARE
# [3] = AVEFA: wild oat (Avena fatua), 14 days after application, read-out: Visual Growth Reduction (%) 14 Days After Application, AVEFA
# [4] = CHEAL: lambsquarters (Chenopodium album), 14 days after application, read-out: Visual Growth Reduction (%) 14 Days After Application, CHEAL
# [5] = CIRAR: canada thistle (Cirsium arvense), 14 days after application, read-out: Visual Growth Reduction (%) 14 Days After Application, CIRAR
# [6] = CYPES: yellow nutsedge (Cyperus esculentus), 14 days after application, read-out: Visual Growth Reduction (%) 14 Days After Application, CYPES
# [7] = DIGSA: crabgrass (Digitaria sanguinalis), 14 days after application, read-out: Visual Growth Reduction (%) 14 Days After Application, DIGSA
# [8] = ECHCG: barnyardgrass (Echinochloa crus-galli), 14 days after application, read-out: Visual Growth Reduction (%) 14 Days After Application, ECHCG
# [9] = IPOHE: ivy-leaf morning glory (Ipomoea hederacea), 14 days after application, read-out: Visual Growth Reduction (%) 14 Days After Application, IPOHE
# [10] = KCHSC: kochia (Bassia scoparia), 14 days after application, read-out: Visual Growth Reduction (%) 14 Days After Application, KCHSC
# [11] = ORYSA: rice (Oryza sativa), 14 days after application, read-out: Visual Growth Reduction (%) 14 Days After Application, ORYSA
# [12] = SETFA: giant foxtail (Setaria faberi), 14 days after application, read-out: Visual Growth Reduction (%) 14 Days After Application, SETFA
# [13] = SORVU: grain sorghum (Sorghum vulgare), 14 days after application, read-out: Visual Growth Reduction (%) 14 Days After Application, SORVU
# [14] = STEME: common chickweed (Stellaria media), 14 days after application, read-out: Visual Growth Reduction (%) 14 Days After Application, STEME
# [15] = TRZAS: wheat, spring (Triticum aestivum), 14 days after application, read-out: Visual Growth Reduction (%) 14 Days After Application, TRZAS
# [16] = blackgrass (Alopecurus myosuroides), 14 Days After Application, read-out: Visual Growth Reduction (%) ALOMY
# [17] = crabgrass (Digitaria sanguinalis), 14 Days After Application, read-out: Visual Growth Reduction (%) DIGSA
# [18] = lambsquarters (Chenopodium album), 14 Days After Application, read-out: Visual Growth Reduction (%) CHEAL
# [19] = redroot pigweed (Amaranthus retroflexus), 14 Days After Application, read-out: Visual Growth Reduction (%) AMARE
# [20] = wild oat (Avena fatua), 14 Days After Application, read-out: Visual Growth Reduction (%) AVEFA
# [21] = yellow nutsedge (Cyperus esculentus), 14 Days After Application, read-out: Visual Growth Reduction (%) CYPES
# [22] = canada thistle (Cirsium arvense), 14 Days After Application, read-out: Visual Growth Reduction (%) CIRAR
Compound,pest or weed control at 140 g/ha [1],pest or weed control at 140 g/ha [2],pest or weed control at 140 g/ha [3],pest or weed control at 140 g/ha [4],pest or weed control at 140 g/ha [5],pest or weed control at 140 g/ha [6],pest or weed control at 140 g/ha [8],pest or weed control at 140 g/ha [9],pest or weed control at 140 g/ha [10],pest or weed control at 140 g/ha [11],pest or weed control at 140 g/ha [12],pest or weed control at 140 g/ha [13],pest or weed control at 140 g/ha [14],pest or weed control at 140 g/ha [15],pest or weed control at 140 g/ha [16],pest or weed control at 140 g/ha [17],pest or weed control at 140 g/ha [18],pest or weed control at 140 g/ha [19],pest or weed control at 140 g/ha [20],pest or weed control at 140 g/ha [21],further results
"O=C(O)c1nc(-c2ccc(SC(F)(F)F)cc2)ccc1Cl [F94, 3-Chloro-6-(4-((trifluoromethyl)thio)phenyl)picolinic acid]",0 to 29%,0 to 29%,0 to 29%,0 to 29%,30 to 44%,0 to 29%,0 to 29%,60 to 74%,0 to 29%,0 to 29%,0 to 29%,0 to 29%,0 to 29%,0 to 29%,,,,,,,pest or weed control at 140 g/ha [7]: 0 to 29%
"C=Cc1c(C(F)(F)F)ccc(-c2nc(C(=O)OC)c(Cl)cc2F)c1Cl [F338, Methyl 3-chloro-6-(2-chloro-4-(trifluoromethyl)-3-vinylphenyl)-5-fluoropicolinate]",,,,,,,0 to 29%,95 to 100%,45 to 59%,0 to 29%,75 to 84%,85 to 94%,0 to 29%,30 to 44%,0 to 29%,60 to 74%,85 to 94%,95 to 100%,30 to 44%,0 to 29%,
"COC(=O)c1nc(-c2cc(F)c(C(F)(F)F)cc2F)ccc1Cl [F323, Methyl 3-chloro-6-(2,5-difluoro-4-(trifluoromethyl)phenyl)picolinate]",,,,,,,0 to 29%,95 to 100%,30 to 44%,0 to 29%,30 to 44%,85 to 94%,0 to 29%,0 to 29%,0 to 29%,75 to 84%,85 to 94%,75 to 84%,0 to 29%,45 to 59%,pest or weed control at 140 g/ha [22]: 45 to 59%
"COC(=O)c1nc(-c2ccc(C(F)(F)F)c(F)c2)ccc1Cl [F306, Methyl 3-chloro-6-(3-fluoro-4-(trifluoromethyl)phenyl)picolinate]",,,,,,,0 to 29%,95 to 100%,0 to 29%,0 to 29%,0 to 29%,60 to 74%,0 to 29%,0 to 29%,0 to 29%,75 to 84%,0 to 29%,30 to 44%,0 to 29%,45 to 59%,pest or weed control at 140 g/ha [22]: 0 to 29%
"COC(=O)c1nc(-c2cc([N+](=O)[O-])c(C(F)(F)F)cc2Cl)c(F)cc1Cl [F322, Methyl 3-chloro-6-(2-chloro-5-nitro-4-(trifluoromethyl)phenyl)-5-fluoropicolinate]",,,,,,,0 to 29%,95 to 100%,0 to 29%,0 to 29%,0 to 29%,0 to 29%,0 to 29%,0 to 29%,0 to 29%,0 to 29%,75 to 84%,60 to 74%,0 to 29%,0 to 29%,pest or weed control at 140 g/ha [22]: 30 to 44%
"COC(=O)c1nc(-c2cc3c(cc2F)OC(F)(F)O3)c(F)cc1Cl [F173, Methyl 3-chloro-5-fluoro-6-(2,2,6-trifluorobenzo[d] [1,3]dioxol-5-yl)picolinate]",60 to 74%,95 to 100%,75 to 84%,95 to 100%,85 to 94%,75 to 84%,85 to 94%,95 to 100%,60 to 74%,0 to 29%,75 to 84%,95 to 100%,0 to 29%,60 to 74%,,,,,,,pest or weed control at 140 g/ha [7]: 95 to 100%
"C#Cc1cc(-c2nc(C(=O)OC)c(Cl)cc2F)c(Cl)cc1C(F)(F)F [F251, Methyl 3-chloro-6-(2-chloro-5-ethynyl-4-(trifluoromethyl)phenyl)-5-yl) picolinate]",,,,,,,0 to 29%,95 to 100%,60 to 74%,0 to 29%,85 to 94%,85 to 94%,0 to 29%,0 to 29%,0 to 29%,75 to 84%,95 to 100%,85 to 94%,0 to 29%,0 to 29%,pest or weed control at 140 g/ha [22]: 85 to 94%
"COC(=O)c1nc(-c2ccc(OC(F)(F)F)cc2F)c(F)cc1Cl [F187, Methyl 3-chloro-5-fluoro-6-(2-fluoro-4-(trifluoromethoxy)phenyl)picolinate]",0 to 29%,85 to 94%,30 to 44%,75 to 84%,75 to 84%,30 to 44%,45 to 59%,95 to 100%,45 to 59%,0 to 29%,75 to 84%,95 to 100%,0 to 29%,30 to 44%,,,,,,,pest or weed control at 140 g/ha [7]: 85 to 94%
"O=C(O)c1nc(-c2ccc(C(F)(F)C(=O)O)cc2Cl)ccc1Cl [F180, 6-(4-(Carboxy-difluoromethyl)-2-chlorophenyl)-3-chloropicolinic acid]",0 to 29%,0 to 29%,0 to 29%,0 to 29%,0 to 29%,0 to 29%,0 to 29%,0 to 29%,0 to 29%,0 to 29%,0 to 29%,0 to 29%,0 to 29%,0 to 29%,,,,,,,pest or weed control at 140 g/ha [7]: 0 to 29%
"COC(=O)c1nc(-c2ccc3ccsc3c2F)c(Cl)cc1Cl [F330, Methyl 3,5-dichloro-6-(7-fluorobenzo[b]thiophen-6-yl)picolinate]",,,,,,,0 to 29%,0 to 29%,0 to 29%,0 to 29%,0 to 29%,0 to 29%,0 to 29%,0 to 29%,0 to 29%,0 to 29%,0 to 29%,0 to 29%,0 to 29%,30 to 44%,
